Among the data in patent US20220363681A1, “OXO SIX-MEMBERED CYCLOPYRIMIDINE COMPOUND, PREPARATION METHOD AND MEDICAL USE THEREOF” (GenFleet Therapeutics (Shanghai) Inc., priority 2019, published 2022) are IC50 values, retold here.

The test system of assay [1] is Kras G12C mutant NCI-H358 cells. Briefly: Cell proliferation inhibition experiment, 3D cell model, CellTiter-Glo (H358). The settings on record: NCI-H358, 2% FBS RPMI-1640, 384-well sphere plate, cultured 5 days with compound. The class given is cell-based, human. As for the experimental part:
(§1) NCI-H358 was a human non-small cell lung cancer cell line with Kras G12C mutation, cultured in 10% FBS RPMI-1640 medium; A549 was a human lung adenocarcinoma cell line with Kras G12S mutation, cultured in 10% FBS F-12K medium. The cells in the logarithmic growth phase was taken, digested with trypsin EDTA, collected and counted, and H358 was adjusted to 1.8E4 cells/ml using 2% FBS RPMI-1640 medium, and A549 was adjusted to 8.9E3 cells/ml using 2% FBS F-12K medium; 800 (45 μl) H358 or 400 (45 μl) A549 cells were seeded in a 384-well sphere plate respectively, cultured overnight to establish a 3D cell model. DMSO was used to prepare 1000× compound 3.16-fold gradient concentration stock solution, and 2% FBS medium was used to dilute 100-fold to 10× compound stock solution. On the second day after cell seeding, 5 μl 10× compound stock solution was added to each cell culture well, the final concentration was 1×, and DMSO content was 0.1%. DMSO was used as the experimental control (control) and 2% FBS medium as the blank control (blank). After the compound and cells were added and cultured for 5 days, 25 μl CellTiter-Glo working solution was added to each well, mixed at 400 rpm and incubated for 30 minutes. After standing 30 minutes at room temperature, 40 μl of the mixture was transfered to a 384-well plate with a non-transparent white bottom, the luminescence chemiluminescence value was read, and the cells proliferation inhibition rate IR (%)=(RLU control-RLU compound)/(RLU control-RLU blank)×100% was calculated, Prism 6 four-parameter method was used to fit the compound's gradient dilution concentration and the corresponding cell proliferation inhibition rate, and the IC50 value was calculated.
(In general: Cellular ATP, detected with luciferase, serves as a proxy for viable cell number.)

In assay [2] the test system is A549 cells (Kras G12S mutation). Briefly: Cell proliferation inhibition experiment, 3D cell model, CellTiter-Glo (A549). The settings on record: A549, 2% FBS F-12K, 384-well sphere plate, cultured 5 days with compound. The class given is cell-based, human. As for the experimental part: as §1

Molecules are shown by their SMILES.

What is called IC50 is the midpoint of a concentration-inhibition curve. With `C=CC(=O)N1CCN(c2nc(OC[C@@H]3CCCN3C)nc3c(OC4CC4)c(-c4c(C)ccc5[nH]ncc45)c(Cl)cc23)C[C@H]1C` [Compound Z30, 1-((2R)-4-(6-chloro-8-cyclopropoxy-7-(5-methyl-1H-indazol-4-yl)-2-((((S)-1-methylpyrrolidin-2-yl))methoxy)quinazolin-4-yl)-2-methylpiperazin-1-yl)prop-2-en-1-one], the half-maximal inhibitory concentration (IC50) in assay [1] (Homo sapiens, NCI-H358, 120 h) is 26 nM; in assay [2] (Homo sapiens, A549, 120 h) it was above 5000 nM.
Turning to `C=CC(=O)N1CCN(c2nc(OC[C@@H]3CCCN3C)nc3c(OC4CC4)c(-c4c(C)ccc5[nH]ncc45)c(Cl)cc23)CC1CC#N` (some centres unmarked) [Compound Z31], the half-maximal inhibitory concentration (IC50) was 34 nM in assay [1] (Homo sapiens, NCI-H358, 120 h) and above 10000 nM in assay [2] (Homo sapiens, A549, 120 h).
For `C=CC(=O)N1CCN(c2nc(OC3CCN(C)C3)nc3c(OC4CC4)c(-c4c(C)ccc5[nH]ncc45)c(Cl)cc23)CC1` (centres unmarked) [Compound Z32], the 50% inhibitory concentration (IC50) is 20 nM in assay [1] (Homo sapiens, NCI-H358, 120 h) and above 1000 nM in assay [2] (Homo sapiens, A549, 120 h).
As to `C=CC(=O)N1CCN(c2nc(N3CC(N(C)C)C3)nc3c(OC4CC4)c(-c4c(C)ccc5[nH]ncc45)c(Cl)cc23)CC1` [Compound Z33, 1-(4-(6-chloro-8-cyclopropoxy-2-(3-(dimethylamino)azetidine-1-yl)-7-(5-methyl-1H-indazol-4-yl)quinazolin-4-yl)piperazin-1-yl)prop-2-en-1-one], the IC50 in assay [1] (Homo sapiens, NCI-H358, 120 h) was 39 nM; in assay [2] (Homo sapiens, A549, 120 h), above 5000 nM.
Take `C=CC(=O)N1CCN(c2nc(N3CCC(N(C)C)CC3)nc3c(OC4CC4)c(-c4c(C)ccc5[nH]ncc45)c(Cl)cc23)CC1` [Compound Z34, 1-(4-(6-chloro-8-cyclopropoxy-2-(4-(dimethylamino)piperidin-1-yl)-7-(5-methyl-1H-indazol-4-yl)quinazolin-4-yl)piperazin-1-yl)prop-2-en-1-one]: the IC50 in assay [1] (Homo sapiens, NCI-H358, 120 h) was 38 nM; in assay [2] (Homo sapiens, A549, 120 h), above 30000 nM.
For the compound `C=CC(=O)N1CCN(c2nc(N3CCC(N(C)C)C3)nc3c(OC4CC4)c(-c4c(C)ccc5[nH]ncc45)c(Cl)cc23)CC1` (centres unmarked) [Compound Z35, 1-(4-(6-chloro-8-cyclopropoxy-2-(3-(dimethylamino)pyrrolidin-1-yl)-7-(5-methyl-1H-indazol-4-yl)quinazolin-4-yl)piperazin-1-yl)prop-2-en-1-one], the IC50 in assay [1] (Homo sapiens, NCI-H358, 120 h) was 43 nM; in assay [2] (Homo sapiens, A549, 120 h) it was above 5000 nM.
For `C=CC(=O)N1CCN(c2nc(OCCN(C)C)nc3c(OC4CC4)c(-c4c(C)ccc5[nH]ncc45)c(Cl)cc23)CC1` [Compound Z36], in that order: 16 nM and above 30000 nM.
On to `C=CC(=O)N1CCN(c2nc(N3CCN(C)CC3)nc3c(OC4CC4)c(-c4c(C)ccc5[nH]ncc45)c(Cl)cc23)CC1` [Compound Z37], for which the IC50 was 51 nM in assay [1] (Homo sapiens, NCI-H358, 120 h) and above 5000 nM in assay [2] (Homo sapiens, A549, 120 h).
For the compound `C=CC(=O)N1CCN(c2nc(OC[C@@H]3C[C@@H](F)CN3C)nc3c(OC4CC4)c(-c4c(C)ccc5[nH]ncc45)c(Cl)cc23)CC1` [Compound Z38, 1-(4-(6-chloro-8-cyclopropoxy-2-((((2S, 4R)-4-fluoro-1-methylpyrrolidin-2-yl)methoxy)-7]-(5-methyl-1H-indazol-4-yl)quinazolin-4-yl)piperazin-1-yl)prop-2-en-1-one], the IC50 in assay [1] (Homo sapiens, NCI-H358, 120 h) is 19 nM; in assay [2] (Homo sapiens, A549, 120 h), above 30000 nM.
In the case of `C=CC(=O)N1CCN(c2nc(O[C@@H]3CCN(C)C3)nc3c(OC4CC4)c(-c4c(C)ccc5[nH]ncc45)c(Cl)cc23)CC1` [Compound Z39], the half-inhibitory concentration (IC50) in assay [1] (Homo sapiens, NCI-H358, 120 h) was 21 nM; in assay [2] (Homo sapiens, A549, 120 h) it was above 5000 nM.
Regarding `C=CC(=O)N1CCN(c2nc(O[C@H]3CCN(C)C3)nc3c(OC4CC4)c(-c4c(C)ccc5[nH]ncc45)c(Cl)cc23)CC1` [Compound Z40], the IC50 in assay [1] is 25 nM; in assay [2], above 1000 nM.
Regarding `C=CC(=O)N1[C@@H]2CC[C@H]1CN(c1nc(OC[C@@H]3CCCN3C)nc3c(OC4CC4)c(-c4c(C)ccc5[nH]ncc45)c(Cl)cc13)C2` [Compound Z42, 1-((1R, 5S)-3-(6-chloro-8-cyclopropoxy-7-(5-methyl-1H-indazol-4-yl)-2-(((S)-1-methylpyrrolidin-2-yl)methoxy)quinazolin-4-yl)-3,8-diazabicyclo[3.2.1]octane-8-yl)prop-2-en-1-one], the IC50 is 331 nM in assay [1] (Homo sapiens, NCI-H358, 120 h) and above 30000 nM in assay [2] (Homo sapiens, A549, 120 h).
For `C=CC(=O)N1CCN(c2nc(OC[C@@H]3C[C@H](F)CN3C)nc3c(OC4CC4)c(-c4c(C)ccc5[nH]ncc45)c(Cl)cc23)CC1` [Compound Z45, 1-(4-(6-chloro-8-cyclopropoxy-2-((((2S, 4S)-4-fluoro-1-methylpyrrolidin-2-yl)methoxy)-7]-(5-methyl-1H-indazol-4-yl)quinazolin-4-yl)piperazin-1-yl)prop-2-en-1-one], in that order: 18 nM and above 30000 nM.
As for `C=CC(=O)N1CCN(c2nc(OC[C@@H]3CCCN3C)nc3c(OC4CC4)c(-c4c(C)ccc5[nH]ncc45)c(Cl)cc23)C[C@@H]1CC#N` [Compound Z46], the IC50 was 2 nM in assay [1] and above 30000 nM in assay [2].
`C=CC(=O)N1CCN(c2nc(OC[C@@H]3CCCN3C)nc3c(OC4CC4)c(-c4c(C)ccc5[nH]nc(F)c45)c(Cl)cc23)CC1` [Compound Z47, 1-(4-(6-chloro-8-cyclopropoxy-7-(3-fluoro-5-methyl-1H-indazol-4-yl)-2-((((S)-1-methylpyrrolidin-2-yl))methoxy)quinazolin-4-yl)piperazin-1-yl)prop-2-en-1-one]: the IC50 in assay [1] (Homo sapiens, NCI-H358, 120 h) was 38 nM; in assay [2] (Homo sapiens, A549, 120 h), above 5000 nM.
The matching figures for `C=CC(=O)N1CCN(c2nc(OC[C@@H]3CCCN3C)nc3c(OC4CC4)c(-c4c(C)ccc5[nH]ncc45)c(OC)cc23)CC1` [Compound Z49, 1-(4-(8-cyclopropoxy-6-methoxy-7-(5-methyl-1H-indazol-4-yl)-2-(((S)-1-methylpyrrolidin-2-yl)methoxy)quinazolin-4-yl)piperazin-1-yl)prop-2-en-1-one]: 83 nM and above 30000 nM.
